Data reported in patent US12421211B2, “Heterocyclic compounds” (Hoffmann-La Roche Inc., priority 2021, dated 2025).
Where a name gives a salt, the structure may show the parent alone.

test system: Acinetobacter baumannii ATCC17961; experiment: Antimicrobial susceptibility testing: 90% growth inhibitory concentration (IC90) determination; type: cell-based; settings: 90% growth inhibitory concentration, Acinetobacter baumannii ATCC17961, Iso-Sensitest broth, OD 600 nm over 16 h; read-out: ATCC 17961 IC90
Outline: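 A. baumannii ATCC17961 at ~5×10^5 CFU/ml in Iso-Sensitest broth exposed to 10-point twofold dilutions (e.g. 50–0.097 μM final), 35±2° C. OD600 read every 20 minutes over 16h; IC50 and IC90 derived from inhibition during logarithmic growth.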

SMILES	IC90
Cc1nn(CC(=O)Nc2ccc(F)nn2)cc1-c1ccc(-c2cnc(C(=O)Nc3ccc(C(=O)N4CCN(C(=O)C5CC[N+](CC(=O)O)(CC6CNC6)CC5)CC4)c(Cl)c3)n2C)c(F)c1F (stereo not drawn) [Example L6, cis 2-[1-(azetidin-3-ylmethyl)-4-[4-[2-chloro-4-[[5-[2,3-difluoro-4-[1-[2-[(6-fluoropyridazin-3-yl)aminol-2-oxo-ethyl]-3-methyl-pyrazol-4-yl]phenyl]-methyl-imidazole-2-carbonyl]amino]benzoyl]piperazine-1-carbonyl]piperidin-1-ium-1-yl]acetic acid; formate]	0.197 µM
Cc1nn(CCOC(F)F)cc1-c1ccc(-c2cnc(C(=O)Nc3ccc(C(=O)N4CCN(C(=O)C5CC[N+](CC(=O)[O-])(CC6CNC6)CC5)CC4)c(Cl)c3)n2C)c(F)c1F (stereo not drawn) [Example N4, cis 2-[1-(azetidin-3-ylmethyl)-4-[4-[2-chloro-4-[[5-[4-[1-[2-(difluoromethoxy)ethyl]-3-methyl-pyrazol-4-yl]-2,3-difluoro-phenyl]-1-methyl-imidazole-2-carbonyl]amino]benzoyl]piperazine-1-carbonyl]piperidin-1-ium-1-yl]acetate]	0.108 µM

same assay, conditions: Acinetobacter baumannii, ATCC17961, 16 h, 90% growth inhibitory concentration, Acinetobacter baumannii ATCC17961, Iso-Sensitest broth, OD 600 nm over 16 h; read-out: ATCC 17961 IC90

SMILES	IC90
COCCn1ncc(-c2ccc(-c3cnc(C(=O)Nc4ccc(C(=O)N5CCN(C(=O)C6CC[N+](C)(C)CC6)CC5)c(Cl)c4)n3C)c(C)c2)c1C [Example F19, N-[3-chloro-4-[4-(1,1-dimethylpiperidin-1-ium-4-carbonyl)piperazine-1-carbonyl]phenyl]-5-[4-[1-(2-methoxyethyl)-5-methyl-pyrazol-4-yl]-2-methyl-phenyl]-1-methyl-imidazole-2-carboxamide; formate]	0.33 µM
Cc1nn(Cc2ccccn2)cc1-c1ccc(-c2cnc(C(=O)Nc3ccc(C(=O)N4CCN(C(=O)C5CC[N+](C)(C)CC5)CC4)c(Cl)c3)n2C)c(F)c1F [Example F41, N-[3-chloro-4-[4-(1,1-dimethylpiperidin-1-ium-4-carbonyl)piperazine-1-carbonyl]phenyl]-5-[2,3-difluoro-4-[3-methyl-1-(2-pyridylmethyl)pyrazol-4-yl]phenyl]-1-methyl-imidazole-2-carboxamide; formate]	0.15 µM
Cc1nn(CC(=O)Nc2ccc(F)cc2)cc1-c1ccc(-c2cnc(C(=O)Nc3ccc(C(=O)N4CCN(C(=O)C5CC[N+](C)(C)CC5)CC4)c(Cl)c3)n2C)c(F)c1F [Example G8, N-[3-chloro-4-[4-(1,1-dimethylpiperidin-1-ium-4-carbonyl)piperazine-1-carbonyl]phenyl]-5-[2,3-difluoro-4-[1-[2-(4-fluoroanilino)-2-oxo-ethyl]-3-methyl-pyrazol-4-yl]phenyl]-1-methyl-imidazole-2-carboxamide; formate]	0.084 µM
Cc1nn(CC(=O)Nc2cn[nH]c2)cc1-c1ccc(-c2cnc(C(=O)Nc3ccc(C(=O)N4CCN(C(=O)C5CC[N+](C)(C)CC5)CC4)c(Cl)c3)n2C)c(F)c1F [Example G11, N-[3-chloro-4-[4-(1,1-dimethylpiperidin-1-ium-4-carbonyl)piperazine-1-carbonyl]phenyl]-5-[2,3-difluoro-4-[3-methyl-1-[2-oxo-2-(1H-pyrazol-4-ylamino)ethyl]pyrazol-4-yl]phenyl]-1-methyl-imidazole-2-carboxamide; formate]	0.71 µM
COCCn1ncc(-c2ccc(-c3cnc(C(=O)Nc4ccc(C(=O)N5CCN(C(=O)C6CC[N+](C)(C)CC6)CC5)c(Cl)c4)n3C)c(C)c2F)c1C [Example F3, N-[3-chloro-4-[4-(1,1-dimethylpiperidin-1-ium-4-carbonyl)piperazine-1-carbonyl]phenyl]-5-[3-fluoro-4-[1-(2-methoxyethyl)-5-methyl-pyrazol-4-yl]-2-methyl-phenyl]-1-methyl-imidazole-2-carboxamide; formate]	0.12 µM
Cn1c(-c2ccc(-c3cn[nH]c3)nc2F)cnc1C(=O)Nc1ccc(C(=O)N2CCN(C(=O)C3CCNCC3)CC2)c(Cl)c1 [Example E18, N-[3-chloro-4-[4-(piperidine-4-carbonyl)piperazine-1-carbonyl]phenyl]-5-[2-fluoro-6-(1H-pyrazol-4-yl)-3-pyridyl]-1-methyl-imidazole-2-carboxamide]	0.82 µM
COCCn1nc(C)c(-c2ccc(-c3cnc(C(=O)Nc4ccc(C(=O)N5CCN(C(=O)C[N+]6(C)CCC(O)C6)CC5)c(Cl)c4)n3C)c(F)c2F)c1C (stereo not shown) [Example C11, N-[3-chloro-4-[4-[2-(3-hydroxy-1-methyl-pyrrolidin-1-ium-1-yl)acetyl]piperazine-1-carbonyl]phenyl]-5-[2,3-difluoro-4-[1-(2-methoxyethyl)-3,5-dimethyl-pyrazol-4-yl]phenyl]-1-methyl-imidazole-2-carboxamide; formate]	0.32 µM
Cn1c(-c2ccc(-c3ccc(N)cn3)c(F)c2F)cnc1C(=O)Nc1ccc(C(=O)N2CCN(C(=O)C3CC[N+](C)(C)CC3)CC2)c(Cl)c1 [Example F65, 5-[4-(5-amino-2-pyridyl)-2,3-difluoro-phenyl]-N-[3-chloro-4-[4-(1,1-dimethylpiperidin-1-ium-4-carbonyl)piperazine-1-carbonyl]phenyl]-1-methyl-imidazole-2-carboxamide; formate]	0.37 µM
COCCn1cc(-c2ccc(-c3cnc(C(=O)Nc4ccc(C(=O)N5CCN(C(=O)[C@@H]6C[C@@H](O)C[N+]6(C)C)CC5)c(Cl)c4)n3C)c(F)c2F)c(C(C)C)n1 [Example F11, N-[3-chloro-4-[4-[(2S,4R)-4-hydroxy-1,1-dimethyl-pyrrolidin-1-ium-2-carbonyl]piperazine-1-carbonyl]phenyl]-5-[2,3-difluoro-4-[3-isopropyl-1-(2-methoxyethyl)pyrazol-4-yl]phenyl]-1-methyl-imidazole-2-carboxamide; formate]	0.8 µM
COCCn1ncc(-c2ccc(-c3cnc(C(=O)Nc4ccc(C(=O)N5CCN(C(=O)[C@H]6[C@@H]7C[N+](C)(C)C[C@@H]76)CC5)c(Cl)c4)n3C)c(F)c2F)c1C [Example B26, N-[3-chloro-4-[4-[(1R,5S)-3,3-dimethyl-3-azoniabicyclo[3.10]hexane-6-carbonyl]piperazine-1-carbonyl]phenyl]-5-[2,3-difluoro-4-[1-(2-methoxyethyl)-5-methyl-pyrazol-4-yl]phenyl]-1-methyl-imidazole-2-carboxamide; formate]	0.064 µM
COCCn1ncc(-c2ccc(-c3cnc(C(=O)Nc4ccc(C(=O)N5CCN(C(=O)C6CC[N+](C)(C)CC6)CC5)c(Cl)c4)n3C)c(OC)c2)c1C [Example F18, N-[3-chloro-4-[4-(1,1-dimethylpiperidin-1-ium-4-carbonyl)piperazine-1-carbonyl]phenyl]-5-[2-methoxy-4-[1-(2-methoxyethyl)-5-methyl-pyrazol-4-yl]phenyl]-1-methyl-imidazole-2-carboxamide; formate]	1.1 µM
Cn1c(-c2ccc(-c3cn(CCOC(F)F)nc3C(F)(F)F)c(F)c2F)cnc1C(=O)Nc1ccc(C(=O)N2CCN(C(=O)C3CCNCC3)CC2)c(Cl)c1 [Example E6, N-[3-chloro-4-[4-(piperidine-4-carbonyl)piperazine-1-carbonyl]phenyl]-5-[4-[1-[2-(difluoromethoxy)ethyl]-3-(trifluoromethyl)pyrazol-4-yl]-2,3-difluoro-phenyl]-1-methyl-imidazole-2-carboxamide; formic acid]	0.95 µM
COCCn1ncc(-c2ccc(-c3cnc(C(=O)Nc4ccc(C(=O)N5CCNCC5)c(Cl)c4)n3C)c(F)c2F)c1C [Example E7, N-[3-chloro-4-(piperazine-1-carbonyl)phenyl]-5-[2,3-difluoro-4-[1-(2-methoxyethyl)-5-methyl-pyrazol-4-yl]phenyl]-1-methyl-imidazole-2-carboxamide; 2,2,2-trifluoroacetic acid]	0.21 µM
CC(O)Cn1cc(-c2ccc(-c3cnc(C(=O)Nc4ccc(C(=O)N5CCN(C(=O)C6CC[N+](C)(C)CC6)CC5)c(Cl)c4)n3C)c(F)c2F)c(C(F)(F)F)n1 (stereo not shown) [Example F33, N-[3-chloro-4-[4-(1,1-dimethylpiperidin-1-ium-4-carbonyl)piperazine-1-carbonyl]phenyl]-5-[2,3-difluoro-4-[1-(2-hydroxypropyl)-3-(trifluoromethyl)pyrazol-4-yl]phenyl]-1-methyl-imidazole-2-carboxamide; formate]	0.36 µM

same assay, conditions: Acinetobacter baumannii, ATCC17961, 16 h, read-out: ATCC 17961 IC90

SMILES	IC90
Cc1nn(CC(=O)Nc2ccc(F)nn2)cc1-c1ccc(-c2cnc(C(=O)Nc3ccc(C(=O)N4CCN(C(=O)C5CC[N+](C)(C)CC5)CC4)c(Cl)c3)n2C)cc1F [Example L2, N-[3-chloro-4-[4-(1,1-dimethylpiperidin-1-ium-4-carbonyl)piperazine-1-carbonyl]phenyl]-5-[3-fluoro-4-[1-[2-[(6-fluoropyridazin-3-yl)amino]-2-oxo-ethyl]-3-methyl-pyrazol-4-yl]phenyl]-1-methyl-imidazole-2-carboxamide; formate]	0.168 µM
COCCn1cc(-c2ccc(-c3cnc(C(=O)Nc4ccc(C(=O)N5CCN(C(=O)[C@H]6CC[N@@+](CC(=O)O)(CC7CNC7)CC6)CC5)c(Cl)c4)n3C)c(F)c2F)c(C)n1 [Example Q3, trans 2-[1-(azetidin-3-ylmethyl)-4-[4-[2-chloro-4-[[5-[2,3-difluoro-4-[1-(2-methoxyethyl)-3-methyl-pyrazol-4-yl]phenyl]-1-methyl-imidazole-2-carbonyl]amino]benzoyl]piperazine-1-carbonyl]piperidin-1-ium-1-yl]acetic acid; formate]	0.359 µM
COCCn1ncc(-c2ccc(-c3cnc(C(=O)Nc4ccc(C(=O)N5CCN(C(=O)C6CC[N+](C)(CCO)CC6)CC5)c(Cl)c4)n3C)c(F)c2F)c1C (stereo not shown) [Example B12, N-[3-chloro-4-[4-[1-(2-hydroxyethyl)-1-methyl-piperidin-1-ium-4-carbonyl]piperazine-1-carbonyl]phenyl]-5-[2,3-difluoro-4-[1-(2-methoxyethyl)-5-methyl-pyrazol-4-yl]phenyl]-1-methyl-imidazole-2-carboxamide; formate]	0.11 µM
